Common to all, as to format: functional
For experiment [1], the system named is Staphylococcus aureus. Kind of experiment: Antimicrobial activity against linezolid-resistant Staphylococcus aureus isolate 004-737X expressing cfr and ermA gene isolated from paraplegic patient by broth microdilution method. Background: Dilution methods test growth across graded concentrations, often in twofold steps.
Experiment [2] relates to Staphylococcus epidermidis. Nature of the experiment: Antimicrobial activity against Staphylococcus epidermidis isolate 426-3147L expressing cfr gene by broth microdilution CLSI method.
Experiment [3] has as its system Staphylococcus aureus. Nature of the experiment: Antimicrobial activity against linezolid-resistant Staphylococcus aureus isolate 004-737X expressing cfr and ermA gene isolated from paraplegic patient by disk diffusion method.
For experiment [4], the system named is Staphylococcus aureus. Kind of experiment: Antimicrobial activity against linezolid-resistant Staphylococcus aureus isolate 004-737X expressing cfr and ermA gene isolated from paraplegic patient by Etest method.
In experiment [5] the test system is Staphylococcus epidermidis. Kind of experiment: Antimicrobial activity against Staphylococcus epidermidis isolate 426-3147L expressing cfr gene by disk diffusion method. On the technique in general: Agar diffusion results depend on both activity and mobility in agar.
In experiment [6] the test system is Staphylococcus epidermidis. Kind of experiment: Antimicrobial activity against Staphylococcus epidermidis isolate 426-3147L expressing cfr gene by Etest method.

≈ marks a conversion by molar mass, not a printed value. A value given as a limit tells only on which side of the number the result lay.

Nine compounds from ChEMBL document CHEMBL1255366, “First report of cfr-mediated resistance to linezolid in human staphylococcal clinical isolates recovered in the United States” (2008) can be followed below.

As a reminder, the MIC is the least concentration at which growth counts as inhibited.

Take `O=C(N[C@H](CO)[C@H](O)c1ccc([N+](=O)[O-])cc1)C(Cl)Cl` [CHLORAMPHENICOL]: the MIC (against Staphylococcus aureus [1]; in experiment [2]) was greater than 256 µg/mL throughout.
Consider `O=C(O)c1cn(C2CC2)c2cc(N3CCNCC3)c(F)cc2c1=O` [CIPROFLOXACIN], for which the MIC in the experiment with Staphylococcus aureus [1] was greater than 32 µg/mL.
Consider `CCC[C@@H]1C[C@@H](C(=O)N[C@@H]([C@H]2O[C@H](SC)[C@H](O)[C@@H](O)[C@H]2O)[C@H](C)Cl)N(C)C1` [CLINDAMYCIN], for which the minimal inhibitory concentration (MIC) (against Staphylococcus aureus [1]; in experiment [2]) was greater than 256 µg/mL in each case.
`CC[C@H]1OC(=O)[C@H](C)[C@@H](O[C@H]2C[C@@](C)(OC)[C@@H](O)[C@H](C)O2)[C@H](C)[C@@H](O[C@@H]2O[C@H](C)C[C@H](N(C)C)[C@H]2O)[C@](C)(O)C[C@@H](C)C(=O)[C@H](C)[C@@H](O)[C@]1(C)O` [ERYTHROMYCIN]: the results for the minimal inhibitory concentration (MIC) (against Staphylococcus aureus [1]; in experiment [2]) were greater than 256 µg/mL and greater than 4 µg/mL, respectively.
On to `CC(=O)NC[C@H]1CN(c2ccc(N3CCOCC3)c(F)c2)C(=O)O1` [LINEZOLID], for which the minimum inhibitory concentration (MIC) against Staphylococcus aureus [1] was 8 µg/mL (≈ 23.7 µM); against Staphylococcus aureus [4], 8 µg/mL (≈ 23.7 µM); in experiment [2] it was greater than 256 µg/mL; in experiment [6], greater than 256 µg/mL. The “diameter of the inhibition zone (DIZ)” value is listed as 19 mm in the experiment with Staphylococcus aureus [3] and 6 mm in experiment [5].
`C/C(=C\C(=O)OCCCCCCCCC(=O)O)C[C@@H]1OC[C@H](C[C@@H]2O[C@H]2[C@@H](C)[C@H](C)O)[C@@H](O)[C@H]1O` [MUPIROCIN]: the values for the MIC (with Staphylococcus aureus [1]; in experiment [2]) were 0.25 µg/mL (≈ 0.499 µM) and 64 µg/mL (≈ 128 µM), respectively.
For the compound `Cc1onc(-c2ccccc2)c1C(=O)N[C@@H]1C(=O)N2[C@@H]1SC(C)(C)[C@@H]2C(=O)O` [OXACILLIN], the minimal inhibitory concentration (MIC) (in the experiment with Staphylococcus aureus [1]; in experiment [2]) was greater than 2 µg/mL each time.
For `C=C[C@]1(C)C[C@@H](OC(=O)CS[C@@H]2C[C@H]3CC[C@@H](C2)N3C)[C@]2(C)[C@H](C)CC[C@]3(CCC(=O)[C@H]32)[C@@H](C)[C@@H]1O` [RETAPAMULIN], the minimal inhibitory concentration (MIC) is 32 µg/mL (≈ 61.8 µM) in the experiment on Staphylococcus aureus [1] and greater than 32 µg/mL in experiment [2].
In the same order, the values of `CN(C)[C@@H]1C(O)=C(C(N)=O)C(=O)[C@@]2(O)C(O)=C3C(=O)c4c(O)cccc4[C@@](C)(O)[C@H]3C[C@@H]12` [TETRACYCLINE] are greater than 8 µg/mL and greater than 8 µg/mL.
